Results on four compounds are retold here after patent publication US20050003509A1, “Method for modulating C.albicans” (priority 2003, published 2005).

Test [1] deals with C.albicans. Nature of the test: induction of morphological transition (hyphae) in buffer. Format: cell-based. The note with it: 10 mM proline or 2.5 mM Glc-Nac in 10 mM MES pH 6.4, 12 hours, 37° C. As to the method:
To test this, stains were grown in YPD, as described supra, washed, and were resuspended in buffer at an OD600 of 1, or buffer (10 MM MES, pH 6.4) containing either 10 mM proline, or 2.5 mM Glc-Nac. The suspensions were incubated for 12 hours, at 37° C., after which the suspensions were examined microscopically.

The subject of test [2] is S.cervesiae strain FGY145. As to the kind of experiment: growth of transformed shr3Δ6 S.cervesiae strain FGY145 with toxic amino acids. The format is cell-based, S.cerevisiae. Conditions: 30° C., six days. On the procedure: Standard culture conditions and media for S.cervesiae and C.albicans have been described by Sherman, in Guthrie, ed. Guide to Yeast Genetics And Molecular Biology (Academic Press, 1991), pp. 3-21, incorporated by reference. To elaborate, Ura^− strains of C.albicans were grown in standard media, supplemented with 25 μg/ml of uridine. Tests on S.cerevisiae were carried out in SD medium supplemented with histidine, as well as various toxic amino acid analogs, i.e., L-canaranine (1 μg/ml), L-azetidine-2-carboxylate (500 μg/ml), B-chloro-D, L-alanine (100 μg/ml), p-fluoro-D, L-phenylalanine (400 μg/ml), D, L-ethionine (300 μg/ml), and 2-aminoethyl-L-cysteine (225 μg/ml). Ljungdahl, et al., Cell, 71:463-478 (1992), was followed to produce SPD and SPD containing 30 mM histidine.
Cell suspension of shr3Δ6 S.cervesiae strain FGY145 described by Gilstring, et al., Mol. Cell Biol., 10:3549-3565 (1999), were transformed with either control plasma pRS316, pPL210, which encodes SHR3 and is described by Ljungdahl, et al., supra, or pPM20, which encodes CSH3, and is described supra. The transformants were spotted on the described SD media, and grown in the presence of the toxic amino acids described supra. Suspensions of the cells were also grown on SPD, and SPD containing 30 mM histidine. […]

The subject of test [3] is C.albicans. As to the kind of experiment: growth on YNB medium with lysine as sole nitrogen source. The format is cell-based. Conditions: 0, 0.1, 1 and 3 mM lysine. As to the method:
Cells were then grown on YNB medium, containing varying concentrations of lysine (0, 0.1, 1 and 3 mM), as sole nitrogen source. A striking gene dosage effect was observed. As expected, none of the strains were able to grow in the absence of lysine, whereas they grew weakly when 0.1 mM lysine was present, showing the C.albicans can metabolize lysine. […] The heterozygous strains have balanced the opposing activities.

For the compound `CC(=O)N[C@H]1C(O)O[C@H](CO)[C@@H](O)[C@@H]1O` (stereo partly drawn) [Glc-Nac, N-acetyl glucosamine], the hyphal development result in the test on C.albicans [1] ((+/+) wild type) and in the test on C.albicans [1] ((−/−) cells) was “extensive hyphal development” each time.

As for `N[C@@H](Cc1c[nH]cn1)C(=O)O` [histidine], the growth sensitivity entry in test [2] (transformants carrying SHR3 (CSH3 transformants indistinguishable)) is reported as “sensitive”; in test [2] (transformants with control plasmid pRS316), “resistant”.

Take `NCCCC[C@H](N)C(=O)O` [lysine]: the “growth with increasing lysine concentration” value is reported as “decrease at concentrations above 1 mM” with C.albicans [3] (CSH3/CSH3 (+/+) strain), “robust growth at concentrations greater than 1 mM” with C.albicans [3] (heterozygous strains) and “improved noticeably” in the test on C.albicans [3] (homozygous null mutant).

On to `O=C(O)[C@@H]1CCCN1` [proline], for which the results for the hyphal development result in the test with C.albicans [1] ((+/+) wild type) and in the test with C.albicans [1] ((−/−) cells) were “developed hyphae readily” and “only a few cells with short germ tubules”, respectively.
